# Measurements: article PMC10714930, “In silico virtual screening for the identification of novel inhibitors against dihydrodipicolinate reductase (DapB) of Mycobacterium tuberculosis, a key enzyme of diaminopimelate pathway” (Microbiology Spectrum, 2023)
# System: M. tb.pFICTO-dapB
# Experiment: microbe, parasite or virus in culture
# Format: cell-based, Mycobacterium tuberculosis
smiles,measurement,setting,value
"COC(=O)CCCc1nc2ccccc2nc1N=Nc1ccccc1 [Compound B59, 4-(3-Phenylazoquinoxalin-2-yl) butanoic acid methyl ester]",MIC99 in overexpressing strain relative to wild type,M. tb.pFICTO-dapB vs M. tb H37Rv,2 x MIC99
same,MIC99,"Mycobacterium tuberculosis, 168 h, M. tb.pFICTO-dapB, 7 days, read-out: MIC99 against DapB-overexpressing strain",40 µg/mL
